Measurements taken from PubChem BioAssay (NCI).
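How tested: cells in 96-well plates exposed to compound for 48 hours at five concentrations. TGI is the concentration that stops growth completely.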

Key:
Assay in all cases: growth of human tumour cells (NCI), 48 h
[1] = system: HL-60(TB) leukemia
[2] = system: HOP-92 NSCLC
[3] = system: UO-31 renal
[4] = system: ACHN renal
[5] = system: HS 578T breast
[6] = system: MALME-3M melanoma
[7] = system: CAKI-1 renal
[8] = system: BT-549 breast
[9] = system: SF-295 CNS
[10] = system: NCI-H460 lung
[11] = system: UACC-62 melanoma
[12] = system: A549 NSCLC
[13] = system: SW-620 colon
[14] = system: OVCAR-3 ovarian
[15] = system: TK-10 renal
[16] = system: LOX IMVI melanoma
[17] = system: A498 renal
[18] = system: SF-539 CNS
[19] = system: CCRF-CEM leukemia
[20] = system: SK-MEL-2 melanoma
[21] = system: COLO 205 colon
[22] = system: SF-268 CNS
[23] = system: HCT-116 colon
[24] = system: SR leukemia
[25] = system: DU-145 prostate
[26] = system: SNB-75 CNS
[27] = system: UACC-257 melanoma
[28] = system: RXF 393 renal
[29] = system: SK-MEL-5 melanoma
[30] = system: SK-MEL-28 melanoma
[31] = system: PC-3 prostate
[32] = system: IGROV1 ovarian
[33] = system: NCI/ADR-RES ovarian
[34] = system: OVCAR-5 ovarian
[35] = system: RPMI-8226 leukemia
[36] = system: SNB-19 CNS
[37] = system: HCT-15 colon
[38] = system: 786-0 renal
[39] = system: SK-OV-3 ovarian
[40] = system: OVCAR-8 ovarian
[41] = system: M14 melanoma
[42] = system: MDA-MB-231 breast
[43] = system: MDA-MB-435
[44] = system: NCI-H23 lung
[45] = system: EKVX NSCLC
[46] = system: U251 CNS
[47] = system: OVCAR-4 ovarian
[48] = system: SN12C renal
[49] = system: KM12 colon
[50] = system: T-47D breast
[51] = system: MCF7 breast
[52] = system: MOLT-4 leukemia
[53] = system: NCI-H522 lung
[54] = system: HT29 colon
[55] = system: MDA-N
[56] = system: HOP-62 NSCLC
[57] = system: K-562 leukemia
[58] = system: NCI-H226 lung

NC1(C(=O)O)CCCC1C(=O)O (configuration not stated)
TGI [1]: > 100 µM
TGI [2]: > 100 µM
TGI [3]: > 100 µM
TGI [4]: > 100 µM
TGI [5]: > 100 µM
TGI [6]: > 100 µM
TGI [7]: > 100 µM
TGI [8]: > 100 µM
TGI [9]: > 100 µM
TGI [10]: > 100 µM
TGI [11]: > 100 µM
TGI [12]: > 100 µM
TGI [13]: > 100 µM
TGI [14]: > 100 µM
TGI [15]: > 100 µM
TGI [16]: > 100 µM
TGI [17]: > 100 µM
TGI [18]: > 100 µM
TGI [19]: > 100 µM
TGI [20]: > 100 µM
TGI [21]: > 100 µM
TGI [22]: > 100 µM
TGI [23]: > 100 µM
TGI [24]: > 100 µM
TGI [25]: > 100 µM
TGI [26]: > 100 µM
TGI [27]: > 100 µM
TGI [28]: > 100 µM
TGI [29]: > 100 µM
TGI [30]: > 100 µM
TGI [31]: > 100 µM
TGI [32]: > 100 µM
TGI [33]: > 100 µM
TGI [34]: > 100 µM
TGI [35]: > 100 µM
TGI [36]: > 100 µM
TGI [37]: > 100 µM
TGI [38]: > 100 µM
TGI [39]: > 100 µM
TGI [40]: > 100 µM
TGI [41]: > 100 µM
TGI [42]: > 100 µM
TGI [43]: > 100 µM
TGI [44]: > 100 µM
TGI [45]: > 100 µM
TGI [46]: > 100 µM
TGI [47]: > 100 µM
TGI [48]: > 100 µM
TGI [49]: > 100 µM
TGI [50]: > 100 µM
TGI [51]: > 100 µM
TGI [52]: > 100 µM
TGI [53]: > 100 µM
TGI [54]: > 100 µM
TGI [55]: > 100 µM
TGI [56]: > 100 µM
TGI [57]: > 100 µM

COc1cc(/C=N\O)cc(/C=N/O)c1O
TGI [1]: > 100 µM
TGI [2]: 79.5 µM
TGI [3]: > 100 µM
TGI [4]: 81.9 µM
TGI [5]: 51.4 µM
TGI [6]: 97.6 µM
TGI [7]: > 100 µM
TGI [8]: > 100 µM
TGI [9]: 76.5 µM
TGI [10]: > 100 µM
TGI [11]: > 100 µM
TGI [12]: > 100 µM
TGI [13]: > 100 µM
TGI [14]: > 100 µM
TGI [15]: > 100 µM
TGI [16]: > 100 µM
TGI [17]: > 100 µM
TGI [18]: 66.3 µM
TGI [19]: 25.1 µM
TGI [20]: 62.7 µM
TGI [21]: 49.2 µM
TGI [22]: > 100 µM
TGI [23]: > 100 µM
TGI [24]: 90.2 µM
TGI [25]: > 100 µM
TGI [26]: > 100 µM
TGI [27]: > 100 µM
TGI [28]: 60.3 µM
TGI [29]: > 100 µM
TGI [30]: > 100 µM
TGI [31]: > 100 µM
TGI [32]: > 100 µM
TGI [33]: > 100 µM
TGI [34]: > 100 µM
TGI [35]: 32.4 µM
TGI [36]: > 100 µM
TGI [37]: > 100 µM
TGI [39]: 90.9 µM
TGI [40]: > 100 µM
TGI [41]: 54.7 µM
TGI [42]: > 100 µM
TGI [58]: 63.8 µM
TGI [43]: > 100 µM
TGI [44]: > 100 µM
TGI [45]: > 100 µM
TGI [46]: > 100 µM
TGI [47]: > 100 µM
TGI [48]: > 100 µM
TGI [49]: > 100 µM
TGI [50]: > 100 µM
TGI [51]: > 100 µM
TGI [52]: 77 µM
TGI [53]: > 100 µM
TGI [54]: > 100 µM
TGI [55]: > 100 µM
TGI [56]: > 100 µM
TGI [57]: > 100 µM

COc1cc(C=O)cc(/C=N/N=C/c2ccccc2O)c1O
TGI [1]: 0.0201 µM
TGI [2]: 39.8 µM
TGI [3]: 99.1 µM
TGI [4]: 67.4 µM
TGI [5]: 10.3 µM
TGI [6]: 18.1 µM
TGI [7]: 49 µM
TGI [8]: 52.6 µM
TGI [9]: 8.16 µM
TGI [10]: > 100 µM
TGI [11]: > 100 µM
TGI [12]: > 100 µM
TGI [13]: > 100 µM
TGI [14]: 65.9 µM
TGI [15]: > 100 µM
TGI [16]: 54.5 µM
TGI [17]: > 100 µM
TGI [18]: 34.2 µM
TGI [19]: 70.3 µM
TGI [20]: 47 µM
TGI [21]: 82.9 µM
TGI [22]: > 100 µM
TGI [23]: 67.3 µM
TGI [24]: 51.2 µM
TGI [25]: > 100 µM
TGI [27]: > 100 µM
TGI [28]: > 100 µM
TGI [29]: > 100 µM
TGI [30]: 73.8 µM
TGI [31]: 85.9 µM
TGI [32]: > 100 µM
TGI [33]: > 100 µM
TGI [35]: 45.3 µM
TGI [36]: > 100 µM
TGI [37]: > 100 µM
TGI [38]: 50.6 µM
TGI [39]: 59.7 µM
TGI [41]: 56.8 µM
TGI [42]: 76.4 µM
TGI [58]: 58.6 µM
TGI [43]: > 100 µM
TGI [44]: 54 µM
TGI [46]: > 100 µM
TGI [47]: > 100 µM
TGI [48]: 64.4 µM
TGI [49]: > 100 µM
TGI [50]: 28.2 µM
TGI [51]: > 100 µM
TGI [52]: 2.05 µM
TGI [53]: > 100 µM
TGI [54]: > 100 µM
TGI [55]: > 100 µM
TGI [56]: > 100 µM

Cc1nc2cc([N+](=O)[O-])ccc2c(NCCCN(C)C)c1C
TGI [1]: > 100 µM
TGI [2]: 8.09 µM
TGI [3]: 32.1 µM
TGI [4]: 76.7 µM
TGI [5]: 75.7 µM
TGI [6]: 18.9 µM
TGI [7]: 55.6 µM
TGI [8]: 26.1 µM
TGI [9]: 48.4 µM
TGI [10]: 13.5 µM
TGI [11]: 33.9 µM
TGI [12]: 32.2 µM
TGI [13]: 24.7 µM
TGI [14]: 33.7 µM
TGI [15]: 67 µM
TGI [16]: 36 µM
TGI [17]: 30.5 µM
TGI [18]: 30 µM
TGI [19]: > 100 µM
TGI [20]: 22.7 µM
TGI [21]: 8.55 µM
TGI [22]: > 100 µM
TGI [23]: 22.4 µM
TGI [24]: > 100 µM
TGI [25]: 68.9 µM
TGI [26]: > 100 µM
TGI [27]: 18.6 µM
TGI [28]: 27.6 µM
TGI [29]: 21.7 µM
TGI [30]: > 100 µM
TGI [31]: 24.3 µM
TGI [32]: 11.9 µM
TGI [33]: 39.9 µM
TGI [34]: 38.3 µM
TGI [35]: > 100 µM
TGI [37]: 31.3 µM
TGI [38]: 30.9 µM
TGI [39]: > 100 µM
TGI [40]: 35.1 µM
TGI [41]: 26.7 µM
TGI [42]: 14.2 µM
TGI [58]: 25.9 µM
TGI [43]: 31.1 µM
TGI [44]: 15.4 µM
TGI [46]: 63.5 µM
TGI [47]: 11.1 µM
TGI [48]: 34.5 µM
TGI [49]: 26.6 µM
TGI [50]: 29 µM
TGI [51]: 11 µM
TGI [52]: 29.4 µM
TGI [53]: 10.7 µM
TGI [54]: 10.9 µM
TGI [55]: 28.2 µM
TGI [56]: 28.2 µM
TGI [57]: > 100 µM

O=C(NCCc1[nH]nc2c1C(=O)C=C(Nc1ccccc1)C2=O)OCc1ccccc1
TGI [1]: > 100 µM
TGI [2]: > 100 µM
TGI [3]: > 100 µM
TGI [4]: > 100 µM
TGI [5]: > 100 µM
TGI [7]: > 100 µM
TGI [8]: > 100 µM
TGI [9]: > 100 µM
TGI [10]: > 100 µM
TGI [11]: > 100 µM
TGI [12]: > 100 µM
TGI [13]: > 100 µM
TGI [14]: > 100 µM
TGI [15]: > 100 µM
TGI [16]: > 100 µM
TGI [17]: > 100 µM
TGI [18]: > 100 µM
TGI [19]: > 100 µM
TGI [20]: > 100 µM
TGI [21]: > 100 µM
TGI [22]: > 100 µM
TGI [23]: > 100 µM
TGI [24]: > 100 µM
TGI [25]: > 100 µM
TGI [26]: > 100 µM
TGI [27]: > 100 µM
TGI [28]: > 100 µM
TGI [29]: > 100 µM
TGI [31]: > 100 µM
TGI [32]: > 100 µM
TGI [33]: > 100 µM
TGI [34]: > 100 µM
TGI [35]: > 100 µM
TGI [36]: > 100 µM
TGI [37]: > 100 µM
TGI [38]: > 100 µM
TGI [39]: > 100 µM
TGI [40]: > 100 µM
TGI [41]: > 100 µM
TGI [42]: > 100 µM
TGI [58]: > 100 µM
TGI [43]: > 100 µM
TGI [44]: > 100 µM
TGI [45]: > 100 µM
TGI [46]: > 100 µM
TGI [47]: > 100 µM
TGI [48]: > 100 µM
TGI [49]: > 100 µM
TGI [50]: > 100 µM
TGI [51]: > 100 µM
TGI [52]: > 100 µM
TGI [53]: > 100 µM
TGI [54]: > 100 µM
TGI [55]: > 100 µM
